“And” between values parts separate entries of the source, which are not always exact repeats. Equal values may be shown once.
Legend:
PTP1B [1] = target: T1, PTP1B (Homo sapiens, UniProt P18031); test: PTP1B inhibitory assay (p-NPP substrate); format: biochemical; details: absorbance at 405 nm, mean ± SD, three independent experiments, read-out: IC50 against PTP1B
T1 sequence (P18031 1-435): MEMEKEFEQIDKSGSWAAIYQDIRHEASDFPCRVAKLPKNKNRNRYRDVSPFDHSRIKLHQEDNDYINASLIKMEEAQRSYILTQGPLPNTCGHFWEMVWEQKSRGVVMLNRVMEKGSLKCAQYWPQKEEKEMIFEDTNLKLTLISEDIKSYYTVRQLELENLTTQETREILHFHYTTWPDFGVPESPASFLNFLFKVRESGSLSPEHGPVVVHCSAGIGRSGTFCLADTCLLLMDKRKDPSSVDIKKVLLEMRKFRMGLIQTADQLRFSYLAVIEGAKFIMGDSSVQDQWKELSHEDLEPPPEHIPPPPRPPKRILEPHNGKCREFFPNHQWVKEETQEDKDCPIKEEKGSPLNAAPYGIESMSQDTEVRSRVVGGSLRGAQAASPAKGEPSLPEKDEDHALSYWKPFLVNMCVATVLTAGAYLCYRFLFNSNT
Method: The p-nitrophenyl phosphate (p-NPP) was used as a substrate to evaluate enzyme inhibition assays, following a previously established protocol. The final assay volume was 100 μL. The 75 μL reaction buffer containing 50 mM HEPES, 100 mM NaCl, 1 mM EDTA, and 1 mM dithiothreitol, 10 μL protein, and 5 μL sample were added to a 96-well plate and incubated at room temperature for 15 min. Subsequently, 10 μL of reaction buffer containing p-NPP was added to the reaction system. Sodium orthovanadate (Na₃VO₄) and dimethyl sulfoxide (DMSO) were used as the positive and negative controls, respectively. Enzymatic activity was determined by measuring absorbance at 405 nm. The half-maximal inhibitory concentration (IC₅₀) values were obtained from three independent experiments. The percentage of inhibition was calculated using the following equation: ODcontrol-ODblank-ODcompound-ODblank/ODcontrol-ODblank×100%

PTP1B [2] = target: T1, PTP1B; test: Inhibition kinetic analysis (Lineweaver–Burk); format: biochemical; details: for Type of inhibition of PTP1B: Lineweaver–Burk double-reciprocal plot; for Vmax in presence of compound: p-NPP substrate, increasing inhibitor concentration
Method: The experimental procedure followed that described in the enzyme inhibition assay. The data were represented using Lineweaver–Burk double-reciprocal plots. The inhibition constants (Ki and Kis) were determined from the secondary plots of the slopes and intercepts derived from the Lineweaver–Burk plots.

SMILES: CC1Cc2c3c(cc(O)c2C(=O)O1)OC1(C)CCC(O)C2(C)CCC(=O)OC12C3 (stereo not drawn) [Compound 1, talarine K]
- IC50 (PTP1B [1]): 16.5 ± 0.6 µM

SMILES: CC1Cc2c3c(cc(O)c2C(=O)O1)OC1(C)CCC(=O)C2(C)CC=C(C(C)(C)O)OC12C3 (stereo not drawn) [Compound 2, talarine L]
- Type of inhibition of PTP1B (PTP1B [2]): competitive inhibitors
- Vmax in presence of compound (PTP1B [2]): unchanged
- IC50 (PTP1B [1]): 1.74 ± 3.81 µM

SMILES: COC1(C(C)C)CCC2(C)C(=O)CCC3(C)Oc4c(Cl)c(O)c5c(c4CC32O1)CC(C)OC5=O (stereo not drawn) [Compound 3, talarine M]
- IC50 (PTP1B [1]): 8.54 µM and 17.6 µM

SMILES: COC1(C(C)C)CCC2(C)C(=O)CCC3(C)Oc4cc(O)c5c(c4CC32O1)C(OC(C)=O)C(C)OC5=O (stereo not drawn) [Compound 4, talarine N]
- IC50 (PTP1B [1]): 8.54 ± 1.52 µM

SMILES: CC(=O)OC1c2c3c(c(Cl)c(O)c2C(=O)OC1C)OC1(C)CCC2(O)OC4(C(C)(C)O)CCC2(C)C1(C3)O4 (stereo not drawn) [Compound 5, talarine O]
- IC50 (PTP1B [1]): 6.57 ± 1.47 µM

SMILES: CC1Cc2c3c(c(Cl)c(O)c2C(=O)O1)OC1(C)CCC2(O)OC4(C(C)(C)O)CCC2(C)C1(C3)O4 (stereo not drawn) [Compound 6, talarine P]
- IC50 (PTP1B [1]): 14.3 ± 0.86 µM

SMILES: CC1OC(=O)c2c(O)c(Cl)c3c(c2C1O)CC12OC4(O)CCC1(C)C(O)(CCC2(C)O3)C4(C)C (stereo not drawn) [Compound 7, talarine Q]
- IC50 (PTP1B [1]): 15.6 ± 1.6 µM

SMILES: CC(=O)O[C@@H]1c2c3c(cc(O)c2C(=O)O[C@@H]1C)O[C@]1(C)CCC(=O)[C@]2(C)CC=C(C(C)C)O[C@]12C3 [Compound 12, talaromyolide J]
- Type of inhibition of PTP1B (PTP1B [2]): competitive inhibitors
- Vmax in presence of compound (PTP1B [2]): unchanged
- IC50 (PTP1B [1]): 3.03 ± 2.25 µM
